Assay results as given in PMC8058616 (Bioorganic & medicinal chemistry, 2021).
pIC50: −log10 of the molar value. Like-named read-outs stand apart in the source and are kept apart here.

Legend:
KB human tumor cells [1] = assay: Nucleoside/AICA protection of KB cell proliferation; conditions: AICA 320 μM
[2] = system: PC43–10 CHO cells (human RFC); conditions: read-out: IC50 PC43–10 (RFC); 96 h; mean (SE); previously published ref 7, 40; cited from earlier work
KB human tumor cells [3] = conditions: AICA 320 μM, as previously reported ref 40; cited from earlier work
[4] = system: KB nasopharyngeal carcinoma cells; assay: Proliferation assay, KB human tumor cells; format: cell-based; conditions: 96 h, read-out: IC50 KB (+FA)
[5] = system: NCI-IGROV1 ovarian cancer cells; assay: Proliferation assay, NCI-IGROV1 EOC cells; format: cell-based, human; conditions: 96 h; for pIC50: Homo sapiens
NCI-IGROV1 EOC cells = assay: Targeted metabolomics; format: cell-based, human; conditions: 1 μM inhibitor, 48 h; for Increase in ZMP (AICAR) level: relative to control
[6] = system: PC43–10 CHO cells (human RFC); assay: Proliferation assay, RFC-expressing PC43–10 CHO cells; conditions: PC43-10, 96 h, read-out: IC50 PC43–10 (RFC)
human GARFTase = biological target: T1, human GARFTase (Homo sapiens, UniProt P22102); assay: In vitro spectrophotometric GARFTase assay with purified enzyme; format: biochemical; conditions: ratio of Ki values
T1 sequence (P22102 808-1010): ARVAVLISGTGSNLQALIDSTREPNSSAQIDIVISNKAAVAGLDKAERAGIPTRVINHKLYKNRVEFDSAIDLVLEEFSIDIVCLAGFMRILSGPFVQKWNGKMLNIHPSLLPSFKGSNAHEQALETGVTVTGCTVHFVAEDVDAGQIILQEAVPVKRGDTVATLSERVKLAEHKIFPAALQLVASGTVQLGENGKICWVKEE

[7] = biological target: human AICARFTase/IMP cyclohydrolase (ATIC) (Homo sapiens, UniProt P31939); assay: In vitro spectrophotometric AICARFTase; format: biochemical; conditions: ratio of Ki values
human AICARFTase/IMP cyclohydrolase (ATIC), sequence (P31939 whole entry): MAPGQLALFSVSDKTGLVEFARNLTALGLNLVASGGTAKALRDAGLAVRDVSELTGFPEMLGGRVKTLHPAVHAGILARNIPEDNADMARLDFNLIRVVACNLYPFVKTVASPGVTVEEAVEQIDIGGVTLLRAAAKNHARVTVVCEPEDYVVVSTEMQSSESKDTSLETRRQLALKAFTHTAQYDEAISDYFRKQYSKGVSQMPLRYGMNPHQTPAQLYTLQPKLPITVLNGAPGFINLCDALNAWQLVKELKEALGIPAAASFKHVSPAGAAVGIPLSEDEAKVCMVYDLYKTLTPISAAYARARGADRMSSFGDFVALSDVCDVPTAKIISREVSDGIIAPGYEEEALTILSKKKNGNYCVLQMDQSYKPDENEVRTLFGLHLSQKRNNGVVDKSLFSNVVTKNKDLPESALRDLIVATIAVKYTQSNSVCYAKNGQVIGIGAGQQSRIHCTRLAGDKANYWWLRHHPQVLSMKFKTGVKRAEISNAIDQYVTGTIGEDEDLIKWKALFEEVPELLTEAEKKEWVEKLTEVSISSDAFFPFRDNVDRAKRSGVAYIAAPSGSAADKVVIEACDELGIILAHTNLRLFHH

[8] = read-out: IC50 NCI-IGROV1 (+FA)
[9] = read-out: IC50 NCI-IGROV1 (RFC/FRα/PCFT)

Row | pIC50 [4] | pIC50 [5, 8] | Structure (SMILES) | pIC50 [6] | also measured
1 | – | – | Nc1nc2[nH]cc(CCCCc3ccc(C(=O)N[C@@H](CCC(=O)O)C(=O)O)cc3)c2c(=O)[nH]1 [AGF23] | – | Protection by AICA (KB human tumor cells [1]): completely protected
2 | – | – | Nc1nc2sc(CCCCc3ccc(C(=O)N[C@@H](CCC(=O)O)C(=O)O)cc3)cc2c(=O)[nH]1 [Compound 2] | – | pIC50 [2]: < 6.00; Protection by AICA (KB human tumor cells [3]): incomplete protection
3 | < 6.00 | < 6.00 | Nc1nc2sc(CCCc3csc(C(=O)N[C@@H](CCC(=O)O)C(=O)O)c3)cc2c(=O)[nH]1 [Compound 6, (4-(3-(2-amino-4-oxo-3,4-dihydrothieno[2,3-d]pyrimidin-6-yl)propyl)thiophene-2-carbonyl)-L-glutamic acid] | < 6.00 | –
4 | < 6.00 | < 6.00 | Nc1nc2sc(CCCc3cc(C(=O)N[C@@H](CCC(=O)O)C(=O)O)cs3)cc2c(=O)[nH]1 [Compound 7, (5-(3-(2-amino-4-oxo-3,4-dihydrothieno[2,3-d]pyrimidin-6-yl)propyl)thiophene-3-carbonyl)-L-glu-tamic acid] | < 6.00 | –
5 | < 6.00 | < 6.00 | Nc1nc2sc(CCCCc3cc(C(=O)N[C@@H](CCC(=O)O)C(=O)O)cs3)cc2c(=O)[nH]1 [Compound 8, (5-(4-(2-amino-4-oxo-3,4-dihydrothieno[2,3-d]pyrimidin-6-yl)butyl)thiophene-3-carbonyl)-L-glutamic acid] | < 6.00 | Fold decreased GARFTase Ki over lead compound 2 (human GARFTase): ~ 20 fold; Fold decreased AICARFTase Ki over lead compound 2 [7]: ~ 9 fold; IC50 NCI-IGROV1 (RFC/FRα/PCFT) ([5]; without folic acid, mean (SE)): inert; pIC50 [5, 9]: < 6.00
6 | < 6.00 | < 6.00 | Nc1nc2sc(CCCCc3csc(C(=O)N[C@@H](CCC(=O)O)C(=O)O)c3)cc2c(=O)[nH]1 [Compound 9, (4-(4-(2-amino-4-oxo-3,4-dihydrothieno[2,3-d]pyrimidin-6-yl)butyl)thiophene-2-carbonyl)-L-glutamic acid] | < 6.00 | –

Row | Structure (SMILES) | pIC50 [4] | pIC50 [5, 8] | pIC50 [6] | also measured
7 | Nc1nc2sc(CCCCc3ccc(C(=O)N[C@@H](CCC(=O)O)C(=O)O)s3)cc2c(=O)[nH]1 [Compound 3, (5-(4-(2-amino-4-oxo-3,4-dihydrothieno[2,3-d]pyrimidin-6-yl)butyl)thiophene-2-carbonyl)-L-glutamic acid] | < 6.00 | < 6.00 | < 6.00 | fGAR level, % of control (NCI-IGROV1 EOC cells): ~ 50 % of control; Increase in ZMP (AICAR) level (NCI-IGROV1 EOC cells): 2 fold
8 | Nc1nc2sc(CCCCc3ccc(C(=O)N[C@@H](CCC(=O)O)C(=O)O)o3)cc2c(=O)[nH]1 [Compound 4, (5-(4-(2-amino-4-oxo-3,4-dihydrothieno[2,3-d]pyrimidin-6-yl)butyl)furan-2-carbonyl)-L-glutamic acid] | < 6.00 | < 6.00 | < 6.00 | pIC50 [5, 9]: < 6.00
9 | Nc1nc2sc(CCCc3ccc(C(=O)N[C@@H](CCC(=O)O)C(=O)O)s3)cc2c(=O)[nH]1 [Compound 5, (5-(3-(2-amino-4-oxo-3,4-dihydrothieno[2,3-d]pyrimidin-6-yl)propyl)thiophene-2-carbonyl)-L-glutamic acid] | < 6.00 | < 6.00 | < 6.00 | fGAR level, % of control (NCI-IGROV1 EOC cells): ~ 75 % of control; Increase in ZMP (AICAR) level (NCI-IGROV1 EOC cells): 3 fold
